As usually defined, the IC50 is the point on the concentration scale where inhibition reaches its midpoint. A low value points to higher potency.

In ChEMBL document CHEMBL1134625 (J Med Chem, 2001) one finds IC50 data, which are given here for one compound.

Some targets named below: D(1A) dopamine receptor (Homo sapiens, UniProt P21728); Vasopressin V1a receptor (Homo sapiens, UniProt P37288); D(1B) dopamine receptor (Homo sapiens, UniProt P21918); D(2) dopamine receptor (Homo sapiens, UniProt P14416).
Assay [1] concerns the target Sodium-dependent dopamine transporter (Homo sapiens, UniProt Q01959).
In assay [2] the target is 5-hydroxytryptamine receptor 2A (Homo sapiens, UniProt P28223).
Another assay concerns the target T1, D(4) dopamine receptor (Homo sapiens, UniProt P21917).
T1 sequence (P21917 whole entry): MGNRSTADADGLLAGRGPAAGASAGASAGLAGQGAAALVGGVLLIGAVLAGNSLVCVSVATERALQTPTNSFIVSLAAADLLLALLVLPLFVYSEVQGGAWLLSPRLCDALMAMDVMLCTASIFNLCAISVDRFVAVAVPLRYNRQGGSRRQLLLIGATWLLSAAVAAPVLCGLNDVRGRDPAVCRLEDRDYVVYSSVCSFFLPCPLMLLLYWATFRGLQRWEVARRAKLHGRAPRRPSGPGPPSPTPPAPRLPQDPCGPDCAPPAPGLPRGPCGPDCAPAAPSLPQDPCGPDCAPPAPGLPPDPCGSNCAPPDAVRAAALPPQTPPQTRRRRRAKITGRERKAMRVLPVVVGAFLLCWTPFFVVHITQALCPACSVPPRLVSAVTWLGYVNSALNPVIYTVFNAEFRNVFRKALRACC

For a further assay, the target named is T2, Adenosine receptor A3 (Homo sapiens, UniProt P0DMS8).
T2 sequence (P0DMS8 whole entry): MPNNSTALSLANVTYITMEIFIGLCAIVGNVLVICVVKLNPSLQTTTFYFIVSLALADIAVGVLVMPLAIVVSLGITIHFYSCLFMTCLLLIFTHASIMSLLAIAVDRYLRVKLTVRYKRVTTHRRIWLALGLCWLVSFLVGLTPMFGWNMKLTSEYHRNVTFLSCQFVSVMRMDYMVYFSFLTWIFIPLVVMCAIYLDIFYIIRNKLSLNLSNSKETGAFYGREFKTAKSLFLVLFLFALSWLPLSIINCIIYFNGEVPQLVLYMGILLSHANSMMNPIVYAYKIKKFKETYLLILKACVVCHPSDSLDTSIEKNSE

Chain of Sodium-dependent dopamine transporter (Q01959 whole entry): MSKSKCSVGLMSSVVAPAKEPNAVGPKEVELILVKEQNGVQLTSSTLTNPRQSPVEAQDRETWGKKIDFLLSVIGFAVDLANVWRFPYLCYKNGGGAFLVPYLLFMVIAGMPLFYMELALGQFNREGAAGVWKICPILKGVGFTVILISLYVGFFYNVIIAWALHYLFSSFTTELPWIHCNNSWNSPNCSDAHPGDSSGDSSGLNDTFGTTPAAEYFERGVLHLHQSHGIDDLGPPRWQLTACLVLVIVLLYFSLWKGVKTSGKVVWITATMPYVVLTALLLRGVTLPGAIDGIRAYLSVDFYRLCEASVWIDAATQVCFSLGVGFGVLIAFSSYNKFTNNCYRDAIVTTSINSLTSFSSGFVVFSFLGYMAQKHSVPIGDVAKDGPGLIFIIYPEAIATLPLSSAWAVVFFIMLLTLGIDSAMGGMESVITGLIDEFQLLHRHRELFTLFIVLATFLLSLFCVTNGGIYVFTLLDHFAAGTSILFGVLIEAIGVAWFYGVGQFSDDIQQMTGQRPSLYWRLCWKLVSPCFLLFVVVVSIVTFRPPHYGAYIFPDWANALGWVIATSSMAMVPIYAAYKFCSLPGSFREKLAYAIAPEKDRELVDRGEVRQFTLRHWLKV
Chain of Vasopressin V1a receptor (P37288 whole entry): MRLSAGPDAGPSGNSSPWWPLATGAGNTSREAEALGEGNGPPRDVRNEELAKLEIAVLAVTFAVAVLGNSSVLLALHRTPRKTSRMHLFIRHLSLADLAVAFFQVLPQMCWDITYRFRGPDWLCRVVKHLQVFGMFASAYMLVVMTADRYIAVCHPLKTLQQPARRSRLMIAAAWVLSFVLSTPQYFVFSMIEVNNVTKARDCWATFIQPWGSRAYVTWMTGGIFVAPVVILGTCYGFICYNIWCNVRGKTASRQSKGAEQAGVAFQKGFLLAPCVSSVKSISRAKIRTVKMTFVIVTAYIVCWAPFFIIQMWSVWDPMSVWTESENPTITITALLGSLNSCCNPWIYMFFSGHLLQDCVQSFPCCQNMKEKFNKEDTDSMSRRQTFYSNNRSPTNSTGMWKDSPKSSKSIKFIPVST
Chain of D(1B) dopamine receptor (P21918 whole entry): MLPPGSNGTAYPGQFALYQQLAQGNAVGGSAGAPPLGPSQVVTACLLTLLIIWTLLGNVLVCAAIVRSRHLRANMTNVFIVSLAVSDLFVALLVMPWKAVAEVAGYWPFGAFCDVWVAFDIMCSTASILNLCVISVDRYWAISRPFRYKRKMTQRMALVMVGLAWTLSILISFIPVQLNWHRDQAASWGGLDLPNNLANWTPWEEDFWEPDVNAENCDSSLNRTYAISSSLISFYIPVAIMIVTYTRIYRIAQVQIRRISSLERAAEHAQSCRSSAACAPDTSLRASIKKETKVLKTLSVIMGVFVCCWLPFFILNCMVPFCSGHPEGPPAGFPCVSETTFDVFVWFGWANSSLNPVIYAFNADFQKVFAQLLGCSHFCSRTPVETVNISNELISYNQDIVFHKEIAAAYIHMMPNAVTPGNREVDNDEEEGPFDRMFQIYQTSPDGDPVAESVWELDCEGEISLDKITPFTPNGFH
Chain of D(2) dopamine receptor (P14416 whole entry): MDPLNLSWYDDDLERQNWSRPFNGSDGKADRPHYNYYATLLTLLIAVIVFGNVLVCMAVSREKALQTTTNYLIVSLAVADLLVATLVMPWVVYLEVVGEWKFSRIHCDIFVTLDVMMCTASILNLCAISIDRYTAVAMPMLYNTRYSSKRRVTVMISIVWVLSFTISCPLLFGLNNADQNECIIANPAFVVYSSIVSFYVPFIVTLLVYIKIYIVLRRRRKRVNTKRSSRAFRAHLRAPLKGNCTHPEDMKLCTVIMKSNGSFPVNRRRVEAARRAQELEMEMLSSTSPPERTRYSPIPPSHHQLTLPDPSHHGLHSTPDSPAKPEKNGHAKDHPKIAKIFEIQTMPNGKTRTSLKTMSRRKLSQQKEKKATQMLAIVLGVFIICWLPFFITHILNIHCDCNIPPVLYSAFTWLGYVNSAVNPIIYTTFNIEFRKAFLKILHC
Chain of D(1A) dopamine receptor (P21728 whole entry): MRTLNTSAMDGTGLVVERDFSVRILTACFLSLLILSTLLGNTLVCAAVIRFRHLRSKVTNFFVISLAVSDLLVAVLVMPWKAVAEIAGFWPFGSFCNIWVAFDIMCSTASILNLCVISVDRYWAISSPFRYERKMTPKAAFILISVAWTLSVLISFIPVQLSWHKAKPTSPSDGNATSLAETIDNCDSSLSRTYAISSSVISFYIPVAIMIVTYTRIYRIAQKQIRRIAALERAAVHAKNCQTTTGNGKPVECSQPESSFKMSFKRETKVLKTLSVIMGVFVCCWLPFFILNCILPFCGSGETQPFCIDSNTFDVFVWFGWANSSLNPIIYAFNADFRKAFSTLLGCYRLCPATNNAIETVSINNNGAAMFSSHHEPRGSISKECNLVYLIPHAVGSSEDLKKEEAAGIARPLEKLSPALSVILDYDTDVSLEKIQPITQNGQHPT
Chain of 5-hydroxytryptamine receptor 2A (P28223 whole entry): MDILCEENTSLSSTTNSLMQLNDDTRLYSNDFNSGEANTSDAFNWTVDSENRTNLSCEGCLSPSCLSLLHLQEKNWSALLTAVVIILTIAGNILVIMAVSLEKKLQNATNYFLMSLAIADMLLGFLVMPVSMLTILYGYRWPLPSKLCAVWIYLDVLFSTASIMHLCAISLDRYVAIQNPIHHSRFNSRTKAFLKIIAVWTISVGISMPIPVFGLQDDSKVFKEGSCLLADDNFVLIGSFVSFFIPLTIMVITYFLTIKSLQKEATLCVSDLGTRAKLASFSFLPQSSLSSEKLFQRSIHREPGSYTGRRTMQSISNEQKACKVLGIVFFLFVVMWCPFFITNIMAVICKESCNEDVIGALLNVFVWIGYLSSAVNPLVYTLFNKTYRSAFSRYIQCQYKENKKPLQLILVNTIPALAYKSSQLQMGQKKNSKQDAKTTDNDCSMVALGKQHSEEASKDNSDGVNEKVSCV

`N#Cc1ccc(CCOC(=O)NC2CCN(CCCC(c3ccc(F)cc3)c3ccc(F)cc3)CC2)cc1`: the IC50 against D(1A) dopamine receptor amounted to 0.376 µM; in assay [1], 0.781 µM; at Vasopressin V1a receptor, 3.65 µM; in assay [2], 0.683 µM; at D(1B) dopamine receptor, 0.513 µM; against D(4) dopamine receptor it was 0.543 µM. Also, the figures for the IC50 at Adenosine receptor A3 and against D(2) dopamine receptor were 5.98 µM and 0.551 µM, respectively.
